Laboratory results published in patent publication US20070169671A1, “Mold Inhibiting Admixture for a Cementitious Material” (priority 2006, published 2007).

Test system: mold
Assay: Mold growth on inoculated cementitious material samples
Type: cell-based
Conditions: cementitious materials formed from mixtures including calcium propionate solutions (0.05, 0.1, 0.2% by weight of concrete ingredients); inoculated with a composition of mold; after two weeks in an environment conducive of mold growth
From the text: Samples of cementitious materials formed from a cementitious mixture including the calcium propionate solutions were inoculated with a composition of mold and placed in an environment conducive of mold growth.

## CCC(=O)[O-].CCC(=O)[O-].[Ca+2] [calcium propionate]
  mold propagation on the cementitious materials: no mold propagation was observed
